Results: US6825230B2, “Spiro and dispiro 1,2,4-trixolane antimalarials” (Medicines for Malaria Venture MMV, priority 2002, dated 2004)
Values after ≈ are worked out from the molar mass of the structure shown. Structures can show the parent of a compound that is named as a salt. Where two headings read alike, the source gives them in different places.

What was measured:
[1] = system: ANKA strain of Plasmodium berghei; assay: Single dose ED50/ED90/ED99 determination in infected mice; assay type: in vivo
Experimental: In the single dose ED50/ED98/ED99 determinations, Moro SPF or NMRI mice (group of three) infected with the ANKA strain of Plasmodium berghei were treated on day one post-infection. […] The SSV consists of 0.5% w/v CMC, 0.5% v/v benzyl alcohol, 0.4% v/v Tween 80, and 0.9% w/v sodium chloride in water. Antimalarial activity was measured by percent reduction in parasitemia on day three post-infection. The ED50/ED90 values were calculated by nonlinear fitting.
The ED50, ED90, and ED99 values were calculated by non-linear fitting with statistical program and were expressed in mg/kg.

[2] = system: Schistosoma mansoni 21-day-old schistosomules; assay: Effect on 21-day-old schistosomules in infected mice; assay type: in vivo; conditions: for % reduction of schistosomule growth at day 21 after per os application of 200 mg/kg, FWR (%): female worm reduction rate
Experimental: Mice were infected with 100 Schistosoma mansoni cercariae on day 21 post-treatment. Each group was treated per os with trioxolanes at a single dose of 200 mg/kg. […] All groups were killed 4 weeks after treatment and the liver and intestine were removed and separated. The liver and intestine were compressed and alive male and female worms could be seen and counted. The effect of the compounds was evaluated by mean total and female worm burden.

[3] = system: Schistosoma mansoni adult worms (49-day-old); assay: Effect on adult schistosomes (49-day-old) in infected mice; assay type: in vivo; conditions: for % reduction of adult worms growth at day 49 after per os application of 400 mg/kg, TWR (%) / Adult worms day 49, per os 400 mg/kg, DEAD WORM (%): single 400 mg/kg per os
Experimental: Mice were infected with 100 Schistosoma mansoni cercariae on day 49 post-treatment. Each group was treated per os with OZ compounds at single doses of 200, 400, and 600 mg/kg. Untreated mice served as the control. All groups were killed 4 weeks after treatment and the liver and intestine were removed and separated. The liver and intestine were compressed and alive male and female worms could be seen and counted.

[4] = system: chloroquine-resistant K1 strain of P. falciparum; assay: In vitro antimalarial semiautomated microdilution assay ([3H]-hypoxanthine incorporation), K1 strain; assay type: cell-based, Plasmodium falciparum; conditions: for IC50: Plasmodium falciparum
Outline: (§1)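 Semiautomated microdilution against intraerythrocytic P. falciparum from asynchronous stock cultures, with growth tracked by [3H]-hypoxanthine incorporation. IC50 values were estimated by Logit regression analysis.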

[5] = system: chloroquine-sensitive NF54 strain of P. falciparum; assay: In vitro antimalarial semiautomated microdilution assay ([3H]-hypoxanthine incorporation), NF54 strain; assay type: cell-based, Plasmodium falciparum; conditions: for IC50: Plasmodium falciparum
Outline: as §1

[6] = system: ANKA strain of P. berghei; assay: Single dose STI in vivo screen in infected mice; set-up: species or system Plasmodium berghei; conditions: for Survival (days) 10 mg/kg po: single 10 mg/kg po in 3% ethanol and 7% Tween 80; for Survival (days) 10 mg/kg po / Survival (days) 10 mg/kg SSV po / Survival (days) 10 mg/kg sc: untreated 6-7 days; for Activity (%) 10 mg/kg po: single 10 mg/kg po in 3% ethanol and 7% Tween 80 on day 1 post-infection; for Activity (%) 10 mg/kg po / Activity (%) 10 mg/kg SSV po / Activity (%) 10 mg/kg sc: percent reduction in parasitemia on day 3; for Survival (days) 10 mg/kg SSV po: single 10 mg/kg po in SSV; for Activity (%) 10 mg/kg SSV po: single 10 mg/kg po in standard suspending vehicle (SSV) on day 1 post-infection; for Survival (days) 10 mg/kg sc: single 10 mg/kg sc in 3% ethanol and 7% Tween 80; for Activity (%) 10 mg/kg sc: single 10 mg/kg sc in 3% ethanol and 7% Tween 80 on day 1 post-infection
[7] = single dose po in SSV on day 1 post-infection, parasitemia day 3, nonlinear fitting
[8] = single 200 mg/kg per os, 21-day-old schistosomules
[9] = 49-day-old adults, total worm reduction rate
[10] = percentage of dead worm in the liver
[11] = Plasmodium berghei, single dose po in SSV on day 1 post-infection, parasitemia day 3, nonlinear fitting, read-out: ED50
[12] = single 200 mg/kg per os, 21-day-old schistosomules, total worm reduction rate
[13] = K1, 72 h, read-out: IC50 (ng/ml) K1, chloroquine-resistant K1 strain, 72 h incubation
[14] = NF54, 72 h, read-out: IC50 (ng/ml) NF54, chloroquine-sensitive NF54 strain, 72 h incubation
[15] = Plasmodium berghei, po, single dose po in SSV on day 1 post-infection, parasitemia day 3, nonlinear fitting

Row | Compound | ED90 [1, 7] [mg/kg] | ED99 [1, 7] [mg/kg] | % reduction of schistosomule growth at day 21 after per os application of 200 mg/kg, FWR (%) [2, 8] [%] | % reduction of adult worms growth at day 49 after per os application of 400 mg/kg, TWR (%) [3, 9] [%] | Adult worms day 49, per os 400 mg/kg, DEAD WORM (%) [3, 10] [%] | IC50 [4, 13] [ng/mL] | IC50 [5, 14] [ng/mL] | Survival (days) 10 mg/kg po [6] [days] | Activity (%) 10 mg/kg po [6] | Survival (days) 10 mg/kg SSV po [6] [days] | Activity (%) 10 mg/kg SSV po [6] | Survival (days) 10 mg/kg sc [6] [days] | Activity (%) 10 mg/kg sc [6] | ED50 [1, 15] [mg/kg] | other results
1 | C[C@H]1[C@@H](OCc2ccc(C(=O)O)cc2)O[C@@H]2O[C@@]3(C)CC[C@H]4[C@H](C)CC[C@@H]1[C@@]24OO3 [Artelinate, artelinate, reference compound] | 10 | 18 |  |  |  |  |  |  |  |  |  |  |  |  | ED50 [1, 7]: 4.8 mg/kg
2 | O=C1CCC2(CC1)OOC1(O2)C2CC3CC(C2)CC1C3 (centres unmarked) [OZ05] |  | 15 | 88 | 23 | 32 |  |  |  |  |  |  |  |  |  | % reduction of schistosomule growth at day 21 after per os application of 200 mg/kg, TWR (%) ([2]; po, 200 mg/kg, 504 h): 90%; % reduction of adult worms growth at day 49 after per os application of 200 mg/kg, TWR (%) ([3]; single 200 mg/kg per os, 49-day-old adults, total worm reduction rate): 46%; Adult worms day 49, per os 200 mg/kg, DEAD WORM (%) ([3]; single 200 mg/kg per os, percentage of dead worm in the liver): 12%; % reduction of adult worms growth at day 49 after per os application of 600 mg/kg, TWR (%) ([3]; single 600 mg/kg per os, 49-day-old adults, total worm reduction rate): 70%; Adult worms day 49, per os 600 mg/kg, DEAD WORM (%) ([3]; single 600 mg/kg per os, percentage of dead worm in the liver): 58%; ED90 ([1]; po): 12 mg/kg
3 | c1ccc(C2CCC3(CC2)OOC2(O3)C3CC4CC(C3)CC2C4)cc1 (centres unmarked) [OZ27] | 5.7 | 9.9 | 58 | 20 | 10 |  |  |  |  |  |  |  |  |  | % reduction of schistosomule growth at day 21 after per os application of 200 mg/kg, TWR (%) ([2]; po, 200 mg/kg, 504 h): 63%; ED50 [1, 11]: 2.9 mg/kg
4 | OCCC1CCC2(CC1)OOC1(O2)C2CC3CC(C2)CC1C3 (centres unmarked) [OZ89] |  |  | 81 | 0 | 17 |  |  |  |  |  |  |  |  |  | % reduction of schistosomule growth at day 21 after per os application of 200 mg/kg, TWR (%) [2, 12]: 86%
5 | CC(C)(O)[C@H]1CC[C@]2(CC1)OOC1(O2)C2CC3CC(C2)CC1C3 (some centres unmarked) [OZ108] |  |  | 28 | 28 | 0 | 68 (≈ 211 nM) | 29 (≈ 89.9 nM) | 5.0 | 0/0/0% | 5.0 | 0/0/0% | 5.7 | 0/0/0% |  | % reduction of schistosomule growth at day 21 after per os application of 200 mg/kg, TWR (%) [2, 12]: 30%
6 | COCC(=O)N1CCC2(CC1)OOC1(O2)C2CC3CC(C2)CC1C3 (centres unmarked) [OZ113, Adamantane-2-spiro-3′-8′-methoxyacetyl-1′,2′,4′-trioxa-8′-azaspiro[4.5]decane] | 9.0 | 19 |  |  |  | 0.95 (≈ 2.82 nM) | 0.2 (≈ 0.593 nM) | 7.3 | 92% | 8.0 | 96% | 7.3 | 89% | 3.6 | 
7 | O=C(NO)[C@H]1CC[C@@]2(CC1)OOC1(O2)C2CC3CC(C2)CC1C3 (some centres unmarked) [OZ127] | 7.6 | 19 |  |  |  | 0.61 (≈ 1.89 nM) | 1.3 (≈ 4.02 nM) | 7.0 | 95% | 7.7 | 98% | 7.7 | 97% | 2.5 | 
8 | c1ncn(C[C@H]2CC[C@]3(CC2)OOC2(O3)C3CC4CC(C3)CC2C4)n1 (stereo partly drawn) [OZ177, cis-Adamantane-2-spiro-3′-8′-(1′H-1′,2′,4′-triazol-1′-ylmethyl)-1′,2′,4-trioxaspiro[4.5]decane] | 3.7 | 5.8 |  |  |  |  |  |  |  |  |  |  |  | 2.1 | IC50 (ng/ml) K1 ([4]; chloroquine-resistant K1 strain, 72 h incubation): 0.9 ng/mL (≈ 2.61 nM); IC50 (ng/ml) NF54 ([5]; chloroquine-sensitive NF54 strain, 72 h incubation): 1.7 ng/mL (≈ 4.92 nM); Survival (days) 10 mg/kg po ([6]; 10 mg/kg): 12.3 days; Activity (%) 10 mg/kg po ([6]; 10 mg/kg): 99.91%; Survival (days) 10 mg/kg SSV po ([6]; 10 mg/kg): 12.7 days; Activity (%) 10 mg/kg SSV po ([6]; 10 mg/kg): 99.88%; Survival (days) 10 mg/kg sc ([6]; 10 mg/kg): 17.7 days; Activity (%) 10 mg/kg sc ([6]; 10 mg/kg): 99.91%
9 | c1cn(C[C@H]2CC[C@]3(CC2)OOC2(O3)C3CC4CC(C3)CC2C4)cn1 (some centres unmarked) [OZ179] | 3.3 | 6.6 |  |  |  | 1.3 (≈ 3.77 nM) | 1.1 (≈ 3.19 nM) |  |  |  |  |  |  | 1.4 | Survival (days) 10 mg/kg po ([6]; hydrochloride, 10 mg/kg): 11.3 days; Activity (%) 10 mg/kg po ([6]; hydrochloride, 10 mg/kg): 99.91%; Survival (days) 10 mg/kg SSV po ([6]; hydrochloride, 10 mg/kg): 10.3 days; Activity (%) 10 mg/kg SSV po ([6]; hydrochloride, 10 mg/kg): 99.78%; Survival (days) 10 mg/kg sc ([6]; hydrochloride, 10 mg/kg): 11.3 days; Activity (%) 10 mg/kg sc ([6]; hydrochloride, 10 mg/kg): 99.91%
10 | NC[C@H]1CC[C@]2(CC1)OOC1(O2)C2CC3CC(C2)CC1C3 (some centres unmarked) [OZ181] | 1.8 | 4.0 |  |  |  |  |  |  |  |  |  |  |  | 0.63 | Survival (days) 10 mg/kg po ([6]; 10 mg/kg): 9.0 days; Activity (%) 10 mg/kg po ([6]; 10 mg/kg): 99.98%; Survival (days) 10 mg/kg SSV po ([6]; 10 mg/kg): 10.0 days; Activity (%) 10 mg/kg SSV po ([6]; 10 mg/kg): 99.91%; Survival (days) 10 mg/kg sc ([6]; 10 mg/kg): 11.0 days; Activity (%) 10 mg/kg sc ([6]; 10 mg/kg): 100%
11 | c1cn(CC[C@H]2CC[C@]3(CC2)OOC2(O3)C3CC4CC(C3)CC2C4)cn1 (some centres unmarked) [OZ219] |  | 5.2 |  |  |  |  |  | 8.7 | 99.89% | 8.0 | 99.82% | 9.3 | 99.91% |  | IC50 ([4]; chloroquine-resistant K1 strain, 72 h incubation, read-out: IC50 (ng/ml) K1): 0.85 ng/mL (≈ 2.37 nM); IC50 ([5]; chloroquine-sensitive NF54 strain, 72 h incubation, read-out: IC50 (ng/ml) NF54): 1.6 ng/mL (≈ 4.46 nM); ED50 [1, 11]: 1.6 mg/kg; ED90 ([1]; po): 3.0 mg/kg
12 | CN1CCN(C(=O)C[C@H]2CC[C@]3(CC2)OOC2(O3)C3CC4CC(C3)CC2C4)CC1 (some centres unmarked) [OZ227] | 4.0 | 6.2 |  |  |  | 0.2 (≈ 0.494 nM) | 0.2 (≈ 0.494 nM) | 8.3 | 99.68% | 9.3 | 99.90% | 10.7 | 99.84% | 2.3 | 
13 | c1ncn(C[C@H]2CC[C@]3(CC2)OOC2(O3)C3CC4CC(C3)CC2C4)n1 (stereo partly drawn) [OZ235, cis-Adamantane-2-spiro-3′-8′-(1′H-1′,2′,4′-triazol-1′-ylmethyl)-1′,2′,4-trioxaspiro[4.5]decane mesylate] | 7.1 | 11 |  |  |  | 1 | 2 |  |  |  |  |  |  |  | Survival (days) 10 mg/kg po ([6]; 10 mg/kg): 8.7 days; Activity (%) 10 mg/kg po ([6]; 10 mg/kg): 99.92%; Survival (days) 10 mg/kg SSV po ([6]; 10 mg/kg): 9.0 days; Activity (%) 10 mg/kg SSV po ([6]; 10 mg/kg): 99.97%; Survival (days) 10 mg/kg sc ([6]; 10 mg/kg): 8.0 days; Activity (%) 10 mg/kg sc ([6]; 10 mg/kg): 97%; ED50 [1, 7]: 4.0 mg/kg
